Assays:
[1] = (§1) Pharmacokinetic parameters for Zolmitriptan following oral administration of Zolmitriptan tablets to subjects with different healthy conditions.; type: ADME, organism-based; details: human, in vivo
Homo sapiens = assay: as §1; type: ADME, organism-based; details: in vivo

CL/F [1]: 31.5 mL/min/kg
dose excreted ([1]; read-out: Excretion): 8%
Tmax (Homo sapiens): 3 hr [middle of 4 runs]
Vd (Homo sapiens): 7 L/kg
SMILES: CN(C)CCc1c[nH]c2ccc(C[C@H]3COC(=O)N3)cc12 [ZOLMITRIPTAN]

Reference: ChEMBL document CHEMBL3832061
